Tested on: 922993-354-T-J3-PDC complex spheroid viability
Assay: Anticancer human tumor 922993-354-T-J3-PDC patient-derived endometrial carcinoma cell line growth inhibition [POLQ]
Conditions: for IC50: curve of first compound; for viability, T/C: stronger effect = lower value
Protocol: Multicellular complex tumor spheroid response to Polymerase (POL) inhibitors (novobiocin, ART-558, RP6685) in combination with a variety of drugs and investigational agents in selected tumor cell lines
The POL inhibitors (novobiocin, ART-558, and RP6685) were evaluated both individually and in combination with standard of care and investigational anticancer small molecules within a complex spheroid model of solid tumors. . Complex spheroids include a stromal component modeled by human endothelial cells (HUVEC) and fibroblasts modeled by human mesenchymal stem cells (MSCs). The concentration ranges selected for each drug and investigational agent were based upon clinically achievable concentrations if the clinical Cmax of the agent was known.
Compounds. The drugs and investigational agents: novobiocin (NSC847541), ART-558 (NSC835418), RP-6685 (NSC848927), peposertib (NSC802822), ceralasertib (NSC780249), elimusertib (NSC800525), camonsertib (NSC841442), AZD-1390 (NSC803789), olaparib (NSC753686), talazoparib (NSC767125), rucaparib (NSC756644), sotorasib (NSC818433), MRTX-1133 (NSC836407), SN-38 (NSC673596), topotecan (NSC609699), epotoside (NSC141540), doxorubicin (NSC123127), gemcitabine (NSC613327), 5-fluorouracil (NSC19893), paclitaxel (NSC125973), vemurafenib (NSC761431), MSA-2 (NSC828583), SN-011 (NSC837082), adavosertib (NSC754352), prexasertib (NSC758257), carboplatin (NSC241240) and oxaliplatin (NSC266046), were obtained from the National Cancer Institute (NCI) Developmental Therapeutics Program Chemical Repository (21). The FDA-approved anticancer drug set is available from the Developmental Therapeutics Program at https://dtp.cancer.gov/organization/dscb/obtaining/. […] The stock solutions were prepared in dimethyl sulfoxide (DMSO, Sigma-Aldrich, St. Louis, MO, cat. D2650), except for the platinum compounds which were prepared in saline (Quality Biological, Gaithersburg, MD, cat. 114-055-101), at 800-fold the tested concentration and stored at -70 degrees C prior to their use. All drugs and investigational agents were tested over a range starting from a high concentration at or near the clinical Cmax and decreasing in half-log increments. If the clinical Cmax for an agent had not been determined, the highest concentration tested was 10 microM, except for SN-38, which was tested at a high concentration of 1 microM.
Cell Culture. All cells were maintained in an incubator at 37 degrees C and 5% CO2 with 95% humidity. The PDC lines were cultured according to standard operating procedures established by the NCI PDMR (https://pdmr.cancer.gov). Table 3 of the manuscript, lists the cell lines along with the number of the three cell types plated to form the mct-spheroids and media for tumor cell growth. After thawing, all PDC lines, except 997537-175-T-J1-PDC and 415267-285-R-J2-PDC, were cultured in Matrigel-coated flasks prepared with a working solution of 1X Ham's F-12 nutrient mix, without supplementation (Thermo Fisher Scientific, cat. 11765054), 100 U/mL penicillin-streptomycin (Thermo Fisher Scientific, cat. 15140122), and 2.5% Matrigel (Corning Inc., Corning, NY, cat. 354248) for the first three passages. The two PDC lines 997537-175-T-J1-PDC and 415267-285-R-J2-PDC were cultured on uncoated flasks. The 857933-349-R-J2-PDC line was cultured in 6C/Colon 1B media containing advanced DMEM/F-12 (Thermo Fisher Scientific, cat. 12634028), 10 mM HEPES (Thermo Fisher Scientific, cat. 15630080), 1X GlutaMAX supplement (Thermo Fisher Scientific, cat. 35050061), 0.1 mg/mL primocin (InvivoGen, San Diego, CA, cat. ant-pm-2), 10% defined fetal bovine serum, heat inactivated (HyClone Laboratories Inc., Logan, UT, cat. SH30070.03HI), 50% L-WRN conditioned media (ATCC, cat. CRL-3276), 1.25 mM N-Acetyl-L-cysteine (Sigma-Aldrich, cat. A9165), 10 mM nicotinamide (Sigma-Aldrich, cat. N0636), 1X B-27 supplement (Thermo Fisher Scientific, cat. 17504044), 1X N-2 supplement (Thermo Fisher Scientific, cat. […]

[1] = second compound 0.0316 µM, first compound 0.0316 µM
[2] = second compound 0.0316 µM, first compound 0.1 µM
[3] = second compound 0.0316 µM, first compound 0.316 µM
[4] = second compound 0.0316 µM, first compound 1 µM
[5] = second compound 0.0316 µM, first compound 3.16 µM
[6] = second compound 0.0316 µM, first compound 10 µM
[7] = second compound 0.1 µM, first compound 0.0316 µM
[8] = second compound 0.1 µM, first compound 0.1 µM
[9] = second compound 0.1 µM, first compound 0.316 µM
[10] = second compound 0.1 µM, first compound 1 µM
[11] = second compound 0.1 µM, first compound 3.16 µM
[12] = second compound 0.1 µM, first compound 10 µM
[13] = second compound 0.316 µM, first compound 0.0316 µM
[14] = second compound 0.316 µM, first compound 0.1 µM
[15] = second compound 0.316 µM, first compound 0.316 µM
[16] = second compound 0.316 µM, first compound 1 µM
[17] = second compound 0.316 µM, first compound 3.16 µM
[18] = second compound 0.316 µM, first compound 10 µM
[19] = second compound 1 µM, first compound 0.0316 µM
[20] = second compound 1 µM, first compound 0.1 µM
[21] = second compound 1 µM, first compound 0.316 µM
[22] = second compound 1 µM, first compound 1 µM
[23] = second compound 1 µM, first compound 3.16 µM
[24] = second compound 1 µM, first compound 10 µM
[25] = second compound 3.16 µM, first compound 0.0316 µM
[26] = second compound 3.16 µM, first compound 0.1 µM
[27] = second compound 3.16 µM, first compound 0.316 µM
[28] = second compound 3.16 µM, first compound 1 µM
[29] = second compound 3.16 µM, first compound 3.16 µM
[30] = second compound 3.16 µM, first compound 10 µM
[31] = second compound 10 µM, first compound 0.0316 µM
[32] = second compound 10 µM, first compound 0.1 µM
[33] = second compound 10 µM, first compound 0.316 µM
[34] = second compound 10 µM, first compound 1 µM
[35] = second compound 10 µM, first compound 3.16 µM
[36] = second compound 10 µM, first compound 10 µM
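Note: spheroids exposed to the agents for one week.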
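Throughout, for viability, T/C: 100% = DMSO vehicle control wells.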

C#Cc1c(F)ccc2cc(O)cc(-c3ncc4c(N5CC6CCC(C5)N6)nc(OCC56CCCN5CC(F)C6)nc4c3F)c12 (stereo unspecified) + Cc1cccc(N(C)C(=O)C2C(O)CCN2c2nc(C)cc(C(F)(F)F)c2C#N)c1
IC50 (second compound 0.0316 µM): > 10 µM | IC50 (second compound 0.1 µM): > 10 µM | IC50 (second compound 0.316 µM): > 10 µM | IC50 (second compound 1 µM): > 10 µM | IC50 (second compound 3.16 µM): > 10 µM | IC50 (second compound 10 µM): > 10 µM | viability, T/C [1]: 107% | viability, T/C [2]: 102% | viability, T/C [3]: 104% | viability, T/C [4]: 106% | viability, T/C [5]: 95.8% | viability, T/C [6]: 91.3% | viability, T/C [7]: 107% | viability, T/C [8]: 95% | viability, T/C [9]: 94% | viability, T/C [10]: 93.7% | viability, T/C [11]: 87.9% | viability, T/C [12]: 98.7% | viability, T/C [13]: 109% | viability, T/C [14]: 108% | viability, T/C [15]: 98.5% | viability, T/C [16]: 101% | viability, T/C [17]: 95% | viability, T/C [18]: 91.7% | viability, T/C [19]: 102% | viability, T/C [20]: 107% | viability, T/C [21]: 98.7% | viability, T/C [22]: 94.5% | viability, T/C [23]: 97.8% | viability, T/C [24]: 89.2% | viability, T/C [25]: 106% | viability, T/C [26]: 101% | viability, T/C [27]: 104% | viability, T/C [28]: 104% | viability, T/C [29]: 99.5% | viability, T/C [30]: 86.2% | viability, T/C [31]: 103% | viability, T/C [32]: 97.2% | viability, T/C [33]: 98.1% | viability, T/C [34]: 94.8% | viability, T/C [35]: 100% | viability, T/C [36]: 78.4%

O=C(Nc1ccc(O)c(NS(=O)(=O)c2ccc(F)cc2)c1)c1ccc(-c2ccccc2)cc1 + Cc1cccc(N(C)C(=O)C2C(O)CCN2c2nc(C)cc(C(F)(F)F)c2C#N)c1
IC50 (second compound 0.0316 µM): > 10 µM | IC50 (second compound 0.1 µM): > 10 µM | IC50 (second compound 0.316 µM): > 10 µM | IC50 (second compound 1 µM): > 10 µM | IC50 (second compound 3.16 µM): > 10 µM | IC50 (second compound 10 µM): > 10 µM | viability, T/C [1]: 106% | viability, T/C [2]: 104% | viability, T/C [3]: 99.2% | viability, T/C [4]: 101% | viability, T/C [5]: 104% | viability, T/C [6]: 105% | viability, T/C [7]: 104% | viability, T/C [8]: 101% | viability, T/C [9]: 106% | viability, T/C [10]: 100% | viability, T/C [11]: 104% | viability, T/C [12]: 104% | viability, T/C [13]: 98.8% | viability, T/C [14]: 104% | viability, T/C [15]: 97.2% | viability, T/C [16]: 98.6% | viability, T/C [17]: 104% | viability, T/C [18]: 103% | viability, T/C [19]: 99.6% | viability, T/C [20]: 102% | viability, T/C [21]: 101% | viability, T/C [22]: 102% | viability, T/C [23]: 103% | viability, T/C [24]: 104% | viability, T/C [25]: 101% | viability, T/C [26]: 101% | viability, T/C [27]: 97.5% | viability, T/C [28]: 99.6% | viability, T/C [29]: 94.8% | viability, T/C [30]: 102% | viability, T/C [31]: 98.1% | viability, T/C [32]: 99.9% | viability, T/C [33]: 102% | viability, T/C [34]: 93.7% | viability, T/C [35]: 94% | viability, T/C [36]: 97%

O=C(c1cc(Cc2n[nH]c(=O)c3ccccc23)ccc1F)N1CCN(C(=O)C2CC2)CC1 + Cc1cccc(N(C)C(=O)C2C(O)CCN2c2nc(C)cc(C(F)(F)F)c2C#N)c1
IC50 (second compound 0.0316 µM): > 10 µM | IC50 (second compound 0.1 µM): > 10 µM | IC50 (second compound 0.316 µM): > 10 µM | IC50 (second compound 1 µM): > 10 µM | IC50 (second compound 3.16 µM): > 10 µM | IC50 (second compound 10 µM): > 10 µM | viability, T/C [1]: 104% | viability, T/C [2]: 103% | viability, T/C [3]: 101% | viability, T/C [4]: 113% | viability, T/C [5]: 99.2% | viability, T/C [6]: 92.4% | viability, T/C [7]: 111% | viability, T/C [8]: 103% | viability, T/C [9]: 111% | viability, T/C [10]: 102% | viability, T/C [11]: 103% | viability, T/C [12]: 109% | viability, T/C [13]: 113% | viability, T/C [14]: 108% | viability, T/C [15]: 104% | viability, T/C [16]: 112% | viability, T/C [17]: 92.9% | viability, T/C [18]: 103% | viability, T/C [19]: 96.4% | viability, T/C [20]: 108% | viability, T/C [21]: 106% | viability, T/C [22]: 107% | viability, T/C [23]: 99.1% | viability, T/C [24]: 109% | viability, T/C [25]: 98.3% | viability, T/C [26]: 107% | viability, T/C [27]: 95.3% | viability, T/C [28]: 94.7% | viability, T/C [29]: 109% | viability, T/C [30]: 106% | viability, T/C [31]: 100% | viability, T/C [32]: 97.7% | viability, T/C [33]: 112% | viability, T/C [34]: 104% | viability, T/C [35]: 104% | viability, T/C [36]: 103%

— PubChem BioAssay AID1963830 (Molecular Pharmacology Branch, DTP, NCI, 2024)
